Reference: US6914045B2, “Glycopeptide antibiotics” (Wyeth Holdings Corporation, priority 2001, dated 2005)
Converted amounts (≈) assume the structure as drawn.

How the values were obtained:
Assay in all cases: in vitro antibacterial evaluation, MIC by broth dilution
Format in all cases: cell-based
Enterococcus sp. = details: broth dilution, 18 hours at 35° C.
Description: (§1) Methods for in vitro Antibacterial Evaluation (Table 1)
(§2) The minimum inhibitory concentration (MIC), the lowest concentration of the antibiotic which inhibits growth of the test organism, is determined by the broth dilution method using Muller-Hinton II […] (Baltimore Biological Laboratories) following the recommendations of the National Committee for Clinical Laboratory Standards [Methods for dilution antimicrobial susceptibility tests for bacteria that grow aerobically, approved standard M7-A2, National Committee for Clinical Laboratory Standards, Villanova, Pa.].
(§3) An inoculum level of 5×10^5 CFU/mL, and a range of antibiotic concentrations (64-0.06 μg/mL) is used. […] The test organisms include a spectrum of Gram-positive bacteria comprised of Staphylococcus sp., Streptococcus sp. and Enterococcus sp. These organisms include recent clinical isolates that are resistant to methicillin, penicillin and/or vancomycin.

Staphylococcus sp. = details: broth dilution, 18 hours at 35° C.; for MIC Staphylococcus aureus (GC 1131): strain GC 1131; for MIC Staphylococcus aureus (ATCC 29213): strain ATCC 29213; for MIC Staphylococcus aureus (GC 3051): strain GC 3051; for MIC Staphylococcus aureus (GC 3053): strain GC 3053; for MIC Staphylococcus aureus (GC 4541): strain GC 4541; for MIC Staphylococcus aureus (GC 4542): strain GC 4542; for MIC Staphylococcus aureus-SMITH (GC 4543): strain GC 4543; for MIC Staphylococcus aureus (GC 4544): strain GC 4544; for MIC Staphylococcus aureus (GC 4545): strain GC 4545; for MIC Staphylococcus haemolyticus (GC 4546): strain GC 4546; for MIC Coagulase Negative Staphylococcus (GC 4547): strain GC 4547; for MIC Coagulase Negative Staphylococcus (GC 4548): strain GC 4548; for MIC Coagulase Negative Staphylococcus (GC 4549): strain GC 4549; for MIC Coagulase Negative Staphylococcus (GC 4551): strain GC 4551
Description: as §1, §2, §3

Streptococcus sp. = details: broth dilution, 18 hours at 35° C.
Description: as §1, §2, §3

Escherichia coli = details: 18 hours at 35° C.
[1] = inoculum 5×10^5 CFU/mL, strain ATCC 29212
[2] = inoculum 5×10^5 CFU/mL, strain GC 2242
[3] = inoculum 5×10^5 CFU/mL, strain GC 2243
[4] = inoculum 5×10^5 CFU/mL, strain GC 2691
[5] = inoculum 5×10^5 CFU/mL, strain GC 3059
[6] = inoculum 5×10^5 CFU/mL, strain GC 4552
[7] = inoculum 5×10^5 CFU/mL, strain GC 4553
[8] = inoculum 5×10^5 CFU/mL, strain GC 4554
[9] = inoculum 5×10^5 CFU/mL, strain GC 4556
[10] = inoculum 5×10^5 CFU/mL, strain GC 4557
[11] = inoculum 5×10^5 CFU/mL, strain GC 4558
[12] = inoculum 5×10^5 CFU/mL, strain GC 6189
[13] = inoculum 5×10^5 CFU/mL, strain ATCC 6301
[14] = inoculum 5×10^5 CFU/mL, strain GC 1894
[15] = inoculum 5×10^5 CFU/mL, strain GC 4563
[16] = inoculum 5×10^5 CFU/mL, strain GC 4564
[17] = inoculum 5×10^5 CFU/mL, strain GC 4565

## CC(c1ccccc1)C1NC(=O)CNC(=O)C(CO)NC(=O)C(CC2CNC(=N)N2C2OC(CO)C(O)C(O)C2O)NC(=O)C(CC2CNC(=N)N2)NC(=O)C(Cc2ccc(OC3OC(CO)C(OC4OC5COC(c6ccc(OCc7ccccc7)cc6)OC5C(O)C4O)C(O)C3O)cc2)NC1=O (centres unmarked) [Example 191]
Enterococcus sp.
  MIC Enterococcus avium (GC 4558): 4 mg/L (≈ 2.74 µM)
  MIC Enterococcus faecalis (ATCC 29212): 16 mg/L (≈ 11 µM)
  MIC Enterococcus faecalis (GC 2242): 8 mg/L (≈ 5.49 µM)
  MIC Enterococcus faecalis (GC 2691): 8 mg/L (≈ 5.49 µM)
  MIC Enterococcus faecalis (GC 3059): 8 mg/L (≈ 5.49 µM)
  MIC Enterococcus faecalis (GC 4552): 16 mg/L (≈ 11 µM)
  MIC Enterococcus faecalis (GC 4553): 8 mg/L (≈ 5.49 µM)
  MIC Enterococcus faecalis (GC 4554): 16 mg/L (≈ 11 µM)
  MIC Enterococcus faecalis (GC 6189): 8 mg/L (≈ 5.49 µM)
  MIC Enterococcus faecium (GC 2243): 8 mg/L (≈ 5.49 µM)
  MIC Enterococcus faecium (GC 4556): 8 mg/L (≈ 5.49 µM)
  MIC Enterococcus faecium (GC 4557): 4 mg/L (≈ 2.74 µM)
Enterococcus sp.; [1]
  MIC Enterococcus faecalis (ATCC 29212): 16 mg/L (≈ 11 µM)
Enterococcus sp.; [2]
  MIC Enterococcus faecalis (GC 2242): 8 mg/L (≈ 5.49 µM)
Enterococcus sp.; [3]
  MIC Enterococcus faecium (GC 2243): 8 mg/L (≈ 5.49 µM)
Enterococcus sp.; [4]
  MIC Enterococcus faecalis (GC 2691): 8 mg/L (≈ 5.49 µM)
Enterococcus sp.; [5]
  MIC Enterococcus faecalis (GC 3059): 8 mg/L (≈ 5.49 µM)
Enterococcus sp.; [6]
  MIC Enterococcus faecalis (GC 4552): 16 mg/L (≈ 11 µM)
Enterococcus sp.; [7]
  MIC Enterococcus faecalis (GC 4553): 8 mg/L (≈ 5.49 µM)
Enterococcus sp.; [8]
  MIC Enterococcus faecalis (GC 4554): 16 mg/L (≈ 11 µM)
Enterococcus sp.; [9]
  MIC Enterococcus faecium (GC 4556): 8 mg/L (≈ 5.49 µM)
Enterococcus sp.; [10]
  MIC Enterococcus faecium (GC 4557): 4 mg/L (≈ 2.74 µM)
Enterococcus sp.; [11]
  MIC Enterococcus avium (GC 4558): 4 mg/L (≈ 2.74 µM)
Enterococcus sp.; [12]
  MIC Enterococcus faecalis (GC 6189): 8 mg/L (≈ 5.49 µM)
Staphylococcus sp.; inoculum 5×10^5 CFU/mL
  MIC Staphylococcus aureus (GC 1131): 8 mg/L (≈ 5.49 µM)
Staphylococcus sp.
  MIC Staphylococcus aureus (ATCC 29213): 4 mg/L (≈ 2.74 µM)
  MIC Staphylococcus aureus (GC 1131): 8 mg/L (≈ 5.49 µM)
  MIC Staphylococcus aureus (GC 3051): 8 mg/L (≈ 5.49 µM)
  MIC Staphylococcus aureus (GC 3053): 8 mg/L (≈ 5.49 µM)
  MIC Staphylococcus aureus (GC 4541): 4 mg/L (≈ 2.74 µM)
  MIC Staphylococcus aureus (GC 4542): 4 mg/L (≈ 2.74 µM)
  MIC Staphylococcus aureus-SMITH (GC 4543): 4 mg/L (≈ 2.74 µM)
  MIC Staphylococcus aureus (GC 4544): 8 mg/L (≈ 5.49 µM)
  MIC Staphylococcus aureus (GC 4545): 4 mg/L (≈ 2.74 µM)
  MIC Staphylococcus haemolyticus (GC 4546): 4 mg/L (≈ 2.74 µM)
  MIC Coagulase Negative Staphylococcus (GC 4547): 8 mg/L (≈ 5.49 µM)
  MIC Coagulase Negative Staphylococcus (GC 4548): 4 mg/L (≈ 2.74 µM)
  MIC Coagulase Negative Staphylococcus (GC 4549): 4 mg/L (≈ 2.74 µM)
  MIC Coagulase Negative Staphylococcus (GC 4551): 4 mg/L (≈ 2.74 µM)
Staphylococcus sp.; strain GC 6257
  MIC Coagulase Negative Staphylococcus (GC 6257): 4 mg/L (≈ 2.74 µM)
Streptococcus sp.
  MIC Streptococcus agalactiae (GC 4564): 2 mg/L (≈ 1.37 µM)
  MIC Streptococcus pneumoniae (ATCC 6301): 1 mg/L (≈ 0.686 µM)
  MIC Streptococcus pneumoniae (GC 1894): 0.25 mg/L (≈ 0.172 µM)
  MIC Streptococcus pneumoniae (GC 4565): 2 mg/L (≈ 1.37 µM)
  MIC Streptococcus pyogenes (GC 4563): 2 mg/L (≈ 1.37 µM)
Streptococcus sp.; [13]
  MIC Streptococcus pneumoniae (ATCC 6301): 1 mg/L (≈ 0.686 µM)
Streptococcus sp.; [14]
  MIC Streptococcus pneumoniae (GC 1894): 0.25 mg/L (≈ 0.172 µM)
Streptococcus sp.; [15]
  MIC Streptococcus pyogenes (GC 4563): 2 mg/L (≈ 1.37 µM)
Streptococcus sp.; [16]
  MIC Streptococcus agalactiae (GC 4564): 2 mg/L (≈ 1.37 µM)
Streptococcus sp.; [17]
  MIC Streptococcus pneumoniae (GC 4565): 2 mg/L (≈ 1.37 µM)
Escherichia coli
  MIC Escherichia coli (ATCC 25922): >64 mg/L
  MIC Escherichia coli (GC 4559): 64 mg/L (≈ 43.9 µM)
  MIC Escherichia coli (GC 4560): 8 mg/L (≈ 5.49 µM)

## CCCCN1CC(C(O)C2NC(=O)C(C(O)C3CNC(=N)N3)NC(=O)C(Cc3ccc(OC4OC(CO)C(OC5OC6COC7(OC6C(O)C5O)C5CC6CC(C5)CC7C6)C(O)C4O)cc3)NC(=O)C(C(C)c3ccccc3)NC(=O)CNC(=O)C(CO)NC2=O)N(C2OC(CO)C(O)C(O)C2O)C1=N (centres unmarked) [Example 224]
Enterococcus sp.
  MIC Enterococcus avium (GC 4558): 2 mg/L (≈ 1.35 µM)
  MIC Enterococcus faecalis (ATCC 29212): 4 mg/L (≈ 2.7 µM)
  MIC Enterococcus faecalis (GC 2242): 4 mg/L (≈ 2.7 µM)
  MIC Enterococcus faecalis (GC 2691): 4 mg/L (≈ 2.7 µM)
  MIC Enterococcus faecalis (GC 3059): 4 mg/L (≈ 2.7 µM)
  MIC Enterococcus faecalis (GC 4552): 4 mg/L (≈ 2.7 µM)
  MIC Enterococcus faecalis (GC 4553): 2 mg/L (≈ 1.35 µM)
  MIC Enterococcus faecalis (GC 4554): 4 mg/L (≈ 2.7 µM)
  MIC Enterococcus faecalis (GC 6189): 4 mg/L (≈ 2.7 µM)
  MIC Enterococcus faecium (GC 2243): 2 mg/L (≈ 1.35 µM)
  MIC Enterococcus faecium (GC 4556): 4 mg/L (≈ 2.7 µM)
  MIC Enterococcus faecium (GC 4557): 0.5 mg/L (≈ 0.337 µM)
Enterococcus sp.; [1]
  MIC Enterococcus faecalis (ATCC 29212): 4 mg/L (≈ 2.7 µM)
Enterococcus sp.; [2]
  MIC Enterococcus faecalis (GC 2242): 4 mg/L (≈ 2.7 µM)
Enterococcus sp.; [3]
  MIC Enterococcus faecium (GC 2243): 2 mg/L (≈ 1.35 µM)
Enterococcus sp.; [4]
  MIC Enterococcus faecalis (GC 2691): 4 mg/L (≈ 2.7 µM)
Enterococcus sp.; [5]
  MIC Enterococcus faecalis (GC 3059): 4 mg/L (≈ 2.7 µM)
Enterococcus sp.; [6]
  MIC Enterococcus faecalis (GC 4552): 4 mg/L (≈ 2.7 µM)
Enterococcus sp.; [7]
  MIC Enterococcus faecalis (GC 4553): 2 mg/L (≈ 1.35 µM)
Enterococcus sp.; [8]
  MIC Enterococcus faecalis (GC 4554): 4 mg/L (≈ 2.7 µM)
Enterococcus sp.; [9]
  MIC Enterococcus faecium (GC 4556): 4 mg/L (≈ 2.7 µM)
Enterococcus sp.; [10]
  MIC Enterococcus faecium (GC 4557): 0.5 mg/L (≈ 0.337 µM)
Enterococcus sp.; [11]
  MIC Enterococcus avium (GC 4558): 2 mg/L (≈ 1.35 µM)
Enterococcus sp.; [12]
  MIC Enterococcus faecalis (GC 6189): 4 mg/L (≈ 2.7 µM)
Staphylococcus sp.
  MIC Staphylococcus aureus (ATCC 29213): 2 mg/L (≈ 1.35 µM)
  MIC Staphylococcus aureus (GC 1131): 4 mg/L (≈ 2.7 µM)
  MIC Staphylococcus aureus (GC 3051): 2 mg/L (≈ 1.35 µM)
  MIC Staphylococcus aureus (GC 3053): 4 mg/L (≈ 2.7 µM)
  MIC Staphylococcus aureus (GC 4541): 1 mg/L (≈ 0.674 µM)
  MIC Staphylococcus aureus (GC 4542): 4 mg/L (≈ 2.7 µM)
  MIC Staphylococcus aureus-SMITH (GC 4543): 2 mg/L (≈ 1.35 µM)
  MIC Staphylococcus aureus (GC 4544): 4 mg/L (≈ 2.7 µM)
  MIC Staphylococcus aureus (GC 4545): 2 mg/L (≈ 1.35 µM)
  MIC Staphylococcus haemolyticus (GC 4546): 1 mg/L (≈ 0.674 µM)
  MIC Coagulase Negative Staphylococcus (GC 4547): 2 mg/L (≈ 1.35 µM)
  MIC Coagulase Negative Staphylococcus (GC 4548): 1 mg/L (≈ 0.674 µM)
  MIC Coagulase Negative Staphylococcus (GC 4549): 1 mg/L (≈ 0.674 µM)
  MIC Coagulase Negative Staphylococcus (GC 4551): 2 mg/L (≈ 1.35 µM)
Streptococcus sp.
  MIC Streptococcus agalactiae (GC 4564): <0.12 mg/L
  MIC Streptococcus pneumoniae (ATCC 6301): 0.25 mg/L (≈ 0.169 µM)
  MIC Streptococcus pneumoniae (GC 1894): <0.12 mg/L
  MIC Streptococcus pneumoniae (GC 4565): 0.25 mg/L (≈ 0.169 µM)
  MIC Streptococcus pyogenes (GC 4563): 0.25 mg/L (≈ 0.169 µM)
Streptococcus sp.; [13]
  MIC Streptococcus pneumoniae (ATCC 6301): 0.25 mg/L (≈ 0.169 µM)
Streptococcus sp.; [14]
  MIC Streptococcus pneumoniae (GC 1894): <0.12 mg/L
Streptococcus sp.; [15]
  MIC Streptococcus pyogenes (GC 4563): 0.25 mg/L (≈ 0.169 µM)
Streptococcus sp.; [16]
  MIC Streptococcus agalactiae (GC 4564): <0.12 mg/L
Streptococcus sp.; [17]
  MIC Streptococcus pneumoniae (GC 4565): 0.25 mg/L (≈ 0.169 µM)
Escherichia coli
  MIC Escherichia coli (ATCC 25922): 128 mg/L (≈ 86.3 µM)
  MIC Escherichia coli (GC 4559): 64 mg/L (≈ 43.1 µM)
  MIC Escherichia coli (GC 4560): 2 mg/L (≈ 1.35 µM)
